Experiment [1] relates to mushroom tyrosinase. The experiment can be described thus: Tyrosinase inhibition assay (DOPA-chrome formation method). Format: biochemical, Agaricus bisporus. On the procedure: Tyrosinase inhibition was determined using the DOPA-chrome formation method as described previously with slight modifications. […] They were preincubated for 10 min at room temperature. Reactions were initiated by adding 4 μL aliquots of 10 mM L-DOPA to each well and incubating at 37 °C for 20 min. Tyrosinase activity was then determined by measuring absorbance at 475 nm. […] Experiments were performed in triplicate.

Experiment [2] addresses porcine pancreatic elastase (Sus scrofa, UniProt P00772).
Experimental: Elastase inhibition assay was performed as described previously with some modifications[32]. Briefly, in Nunc-96 well microtiter plates, 20-µL aliquots of 0.8-units/mL PPE in Trizma® base buffer (pH 8.0) were mixed with 20-µL samples, and the mixtures were then diluted to 180 µL in Trizma® base buffer. Test extracts were preincubated with enzyme for 15 min, and 20-μL aliquots of the substrate N-succinyl-Ala-Ala-Ala-p-nitroanilide (A3PVN; 2.9 mM) were added and incubated for another 15 min. Positive control and blank wells contained oleanolic acid and water, respectively. Experiments were conducted in triplicate, and inhibition rates were determined according to absorbance at 401 nm using a VersaMax microplate reader.
Percentage inhibition was calculated using the following equation: Elastase inhibition%=1-T-Tb/E-Eb×100, where E is the absorbance of the enzyme reaction, Eb is the absorbance of the enzyme blank, T is the absorbance of the test sample, and Tb is the absorbance of the test blank.
Experiment [3] has as its target elastase. As to conditions: cited from earlier work.

The structures appear in SMILES notation. Values after ≈ are worked out from the molar mass of the structure shown.

porcine pancreatic elastase, sequence (P00772 27-266): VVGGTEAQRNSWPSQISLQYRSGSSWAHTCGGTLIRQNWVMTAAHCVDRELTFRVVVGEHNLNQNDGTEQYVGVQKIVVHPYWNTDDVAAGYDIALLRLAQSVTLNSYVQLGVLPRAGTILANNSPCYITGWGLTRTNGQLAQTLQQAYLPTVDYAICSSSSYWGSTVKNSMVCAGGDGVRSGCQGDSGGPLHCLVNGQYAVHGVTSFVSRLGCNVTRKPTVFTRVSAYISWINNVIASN

Consider `C[C@@H]1CC[C@]2(C(=O)O)CCC3(C)C(=CCC4C3(C)CCC3C(C)(C(=O)O)[C@H]5OCCO[C@@H]5C[C@@]34C)C2[C@]1(C)O` (stereo partly shown) [Compound 1, 2,3-O-ethylene glycol, 19-hydroxyurs-12-en-23,28-dioic acid], for which, in experiment [1], the “Activity as tyrosinase inhibitors (in words)” value is “moderate activities” and the IC50 tyrosinase inhibition is reported as 207.79 µg/mL (≈ 381 µM). In experiment [2], this molecule had an IC50 of 224 µM.

As to `C[C@@H]1CC[C@]2(C(=O)O)CCC3(C)C(=CCC4C3(C)CCC3C(C)(C)[C@H]5OCCCO[C@@H]5C[C@@]34C)C2[C@]1(C)O` (stereo partly shown) [Compound 2, 2,3-O-Propanediol, 19-hydroxyurs-12-en-28-oic acid], in experiment [1], the “Activity as tyrosinase inhibitors (in words)” value is given as “moderate activities” and the IC50 tyrosinase inhibition is on record as 221.51 µg/mL (≈ 419 µM). The molecule further gave an IC50 in experiment [2] of 186 µM.

On to `C[C@H]1[C@H](C)CC[C@]2(C(=O)O)CC[C@]3(C)C(=CC[C@@H]4[C@@]5(C)CC[C@H](O)C(C)(C)[C@@H]5CC[C@]43C)[C@H]12` [ursolic acid], for which, in experiment [3], the “IC50 elastase inhibition (previous studies)” value was 31.0 µg/mL (≈ 67.9 µM).

In general, IC50 refers to the midpoint of a concentration-inhibition curve. Low values mean inhibition by little substance, high ones a need for much substance.

These data come from paper PMC8516952, “Two triterpenoids from Rubus fraxinifolius leaves and their tyrosinase and elastase inhibitory activities” (Scientific Reports, 2021).
